Measured values reported in publication PMC9709915, “A Single Point Mutation Blocks the Entrance of Ligands to the Cannabinoid CB2 Receptor via the Lipid Bilayer” (Journal of Chemical Information and Modeling, 2022).

Tests used:
Test in all cases: inhibition of forskolin-stimulated cAMP, Lance-Ultra cAMP kit, HTRF
Assay type in all cases: cell-based
CB2R (hCB2R) [1] = molecular target: T1, CB2R (hCB2R) (Homo sapiens, UniProt P34972)
T1 construct: gene CNR2; full-length hCB2R cDNA in pcDNA3.1, transiently expressed in HEK-293T cells; no tag mentioned
Excerpt: (§1) inhibition of forskolin-stimulated cAMP, Lance-Ultra cAMP kit, HTRF on CB2R (hCB2R)

CB2R (hCB2R) [2] = molecular target: T2, CB2R (hCB2R) (Homo sapiens, UniProt P34972, A282F)
T2 construct: gene CNR2; full-length hCB2R cDNA in pcDNA3.1, transiently expressed in HEK-293T cells; no tag mentioned
Excerpt: as §1

CB2R (hCB2R) [3] = molecular target: T3, CB2R (hCB2R) (Homo sapiens, UniProt P34972, A282M)
T3 construct: gene CNR2; full-length hCB2R cDNA in pcDNA3.1, transiently expressed in HEK-293T cells; no tag mentioned
Excerpt: as §1

CB2R (hCB2R) [4] = molecular target: T4, CB2R (hCB2R) (Homo sapiens, UniProt P34972, V36F)
T4 construct: gene CNR2; full-length hCB2R cDNA in pcDNA3.1, transiently expressed in HEK-293T cells; no tag mentioned
Excerpt: as §1

CB2R (hCB2R) [5] = molecular target: T5, CB2R (hCB2R) (Homo sapiens, UniProt P34972, V36M)
T5 construct: gene CNR2; full-length hCB2R cDNA in pcDNA3.1, transiently expressed in HEK-293T cells; no tag mentioned
Excerpt: as §1

T3 sequence (P34972 whole entry A282M): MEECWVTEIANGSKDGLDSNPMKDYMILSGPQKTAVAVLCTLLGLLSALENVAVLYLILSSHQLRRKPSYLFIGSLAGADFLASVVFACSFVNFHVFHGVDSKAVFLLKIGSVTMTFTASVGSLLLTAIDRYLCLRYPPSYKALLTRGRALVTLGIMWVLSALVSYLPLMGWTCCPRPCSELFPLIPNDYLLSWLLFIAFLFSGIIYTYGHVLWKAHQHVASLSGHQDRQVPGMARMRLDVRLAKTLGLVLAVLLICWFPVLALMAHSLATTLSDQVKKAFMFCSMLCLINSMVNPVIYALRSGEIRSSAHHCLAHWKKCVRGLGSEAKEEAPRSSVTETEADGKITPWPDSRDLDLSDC
T4 sequence (P34972 whole entry V36F): as the sequence (P34972 whole entry A282M) above, with V36F, M282A counted along it
T5 sequence (P34972 whole entry V36M): as the sequence (P34972 whole entry A282M) above, with V36M, M282A counted along it
T2 sequence (P34972 whole entry A282F): as the sequence (P34972 whole entry A282M) above, with M282F counted along it
T1 sequence (P34972 whole entry): as the sequence (P34972 whole entry A282M) above, with M282A counted along it

CCCC(C)(C)c1ccc2c(c1)OC(C)(C)[C@@H]1CC=C(C)C[C@@H]21 [JWH-133]
EC50 (CB2R (hCB2R) [1]): 0.0316 µM
EC50 (CB2R (hCB2R) [2]): 0.316 µM
EC50 (CB2R (hCB2R) [3]): 0.0158 µM
EC50 (CB2R (hCB2R) [4]): 0.158 µM
EC50 (CB2R (hCB2R) [5]): 0.0126 µM
